Measured values reported in patent publication US9783505B2, “Substituted diaminopyrimidyl compounds, compositions thereof, and methods of treatment therewith” (Signal Pharmaceuticals, LLC, priority 2013, dated 2017).
Read-outs that look alike come from different tables or passages of the source.

How the values were obtained:
His-PKC-theta = biological target: T1, His-PKC-theta (Homo sapiens, UniProt Q04759); test: PKC-theta Assay (384-well time resolved fluorescence, IMAP TR-FRET); type: biochemical; conditions: read-out: Act. Level (IC50 in the PKC-theta Assay)
T1 construct: His; purchased Invitrogen
Method in brief: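 Fam-labeled S6-derived peptide (200 nM) and 10 μM ATP were reacted with 142 pM enzyme for 2 h at room temperature in HEPES pH 7.6 buffer with MgCl2, DTT, Triton X-100, BSA and EDTA. The reaction was stopped with IMAP progressive binding reagent plus Tb donor, incubated overnight, then TR-FRET read.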

PKC delta = biological target: T2, PKC delta (Homo sapiens, UniProt Q05655); test: PKC delta Assay (384-well time resolved fluorescence, IMAP TR-FRET); type: biochemical; conditions: selectivity for PKC-theta over PKC-delta
T2 construct: purchased Invitrogen
Procedure: PKC delta Assay. A 384-well time resolved fluorescence assay was used to monitor PKC delta activity. The PKC delta assay was run in the following assay buffer: 50 mM HEPES pH 7.6, 10 mM MgCl2, 1 mM DTT, 0.01% Triton X-100, 0.01% BSA and 0.1 mM EDTA. To initiate the reaction, 200 nM of Fam-labeled S6-derived peptide (Molecular Devices) and 10 μM of ATP were mixed with 1.5 nM of PKC delta (Invitrogen), for a total assay volume of 25 μL in each well. The assay was incubated at room temperature for 2 hours and terminated using a 60 μL/well mixture of Detection Binding Solution: 70% IMAP Progressive Binding Buffer A, 30% IMAP Progressive Binding Buffer B, 1:600 Progressive Binding Reagent, and 1:400 TR-FRET Tb Donor (Molecular Devices). The assay plates were then incubated overnight at room temperature and read on the Perkin-Elmer Envision Reader.

T1 sequence (Q04759 whole entry): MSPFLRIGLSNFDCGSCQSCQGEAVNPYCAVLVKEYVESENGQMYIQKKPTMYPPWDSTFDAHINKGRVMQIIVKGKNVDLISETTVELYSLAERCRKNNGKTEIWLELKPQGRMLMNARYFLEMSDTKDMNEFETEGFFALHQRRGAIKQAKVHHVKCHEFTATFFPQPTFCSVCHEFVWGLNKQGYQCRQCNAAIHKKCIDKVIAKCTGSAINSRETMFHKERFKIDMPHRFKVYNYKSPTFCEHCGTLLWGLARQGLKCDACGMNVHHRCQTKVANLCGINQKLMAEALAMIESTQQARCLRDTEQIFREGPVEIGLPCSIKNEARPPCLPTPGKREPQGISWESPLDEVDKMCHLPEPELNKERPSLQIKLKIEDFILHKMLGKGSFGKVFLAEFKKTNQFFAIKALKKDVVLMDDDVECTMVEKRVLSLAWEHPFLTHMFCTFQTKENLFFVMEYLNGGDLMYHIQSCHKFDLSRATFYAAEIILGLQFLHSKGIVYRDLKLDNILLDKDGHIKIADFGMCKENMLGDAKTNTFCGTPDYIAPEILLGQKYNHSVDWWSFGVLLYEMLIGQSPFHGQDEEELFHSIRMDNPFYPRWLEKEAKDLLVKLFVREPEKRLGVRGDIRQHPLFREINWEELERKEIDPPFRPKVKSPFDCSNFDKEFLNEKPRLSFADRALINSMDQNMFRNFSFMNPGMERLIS
T2 sequence (Q05655 whole entry): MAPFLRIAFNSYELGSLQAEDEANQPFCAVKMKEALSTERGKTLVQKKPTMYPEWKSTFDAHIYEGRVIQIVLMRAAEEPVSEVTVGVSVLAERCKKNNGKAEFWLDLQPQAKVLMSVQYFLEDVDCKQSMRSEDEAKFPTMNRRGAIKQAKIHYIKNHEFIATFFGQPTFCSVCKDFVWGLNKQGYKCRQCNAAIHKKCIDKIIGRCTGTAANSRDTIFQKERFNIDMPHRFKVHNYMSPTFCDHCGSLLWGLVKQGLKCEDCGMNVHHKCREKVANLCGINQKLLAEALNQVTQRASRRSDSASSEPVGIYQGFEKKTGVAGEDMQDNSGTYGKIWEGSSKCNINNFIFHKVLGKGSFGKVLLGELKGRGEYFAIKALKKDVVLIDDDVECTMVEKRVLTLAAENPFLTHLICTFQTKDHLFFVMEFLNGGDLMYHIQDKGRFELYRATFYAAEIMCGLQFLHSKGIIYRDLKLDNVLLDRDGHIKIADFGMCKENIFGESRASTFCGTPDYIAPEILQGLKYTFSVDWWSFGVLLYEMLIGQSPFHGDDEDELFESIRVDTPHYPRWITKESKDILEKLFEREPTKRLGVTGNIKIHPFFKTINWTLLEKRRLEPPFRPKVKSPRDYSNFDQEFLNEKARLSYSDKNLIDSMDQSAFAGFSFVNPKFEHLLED

IC50 (His-PKC-theta) [nM]	IC50 (His-PKC-theta; Table 2) [nM]	Compound	Sel. Level (ratio of IC50 PKC-delta/IC50 PKC-theta) (PKC delta)
	100 to 800	CC1(C)C[C@H](Nc2nc(NCCc3ccc(F)cc3F)ncc2C#N)CC[C@@H]1O [Cmpd 197]	
800 to 2000		Cc1ccc(CCNc2ncc(C#N)c(N[C@@H]3CC[C@H](O)C(C)(C)C3)n2)cn1 [Cmpd 197]	
2000 to 10000		Cc1cc(C)n(CCNc2ncc(C#N)c(N[C@@H]3CC[C@H](O)C(C)(C)C3)n2)n1 [Cmpd 198]	
	100 to 800	N#Cc1cnc(NCCc2cccc(F)c2)nc1N[C@H]1CC[C@@H](O)CC1 [Cmpd 198]	
2000 to 10000		COCc1noc(CCNc2ncc(C#N)c(N[C@@H]3CC[C@H](O)C(C)(C)C3)n2)n1 [Cmpd 199]	H (selectivity level of 5-fold or less (selectivity level H))
800 to 2000		CC1(C)C[C@H](Nc2nc(NCCc3cc4ccccc4[nH]3)ncc2C#N)CC[C@@H]1O [Cmpd 200]	G (selectivity between 5- and 20-fold (selectivity level G))
100 to 800		CC1(C)C[C@H](Nc2nc(NCCn3cccc3)ncc2C#N)CC[C@@H]1O [Cmpd 201]	F (selectivity of between 20- and 100-fold (selectivity level F))
2000 to 10000		CC1(C)C[C@H](Nc2nc(NCCn3ccc4ccccc43)ncc2C#N)CC[C@@H]1O [Cmpd 202]	H (selectivity level of 5-fold or less (selectivity level H))
< 100		CC1(C)C[C@H](Nc2nc(NCCc3c[nH]c4ccccc34)ncc2C#N)CC[C@@H]1O [Cmpd 203]	F (selectivity of between 20- and 100-fold (selectivity level F))
100 to 800		CC1(C)C[C@H](Nc2nc(NCCc3c[nH]c4ncccc34)ncc2C#N)CC[C@@H]1O [Cmpd 204]	F (selectivity of between 20- and 100-fold (selectivity level F))
2000 to 10000		CC1(C)C[C@H](Nc2nc(NCCc3nc4ccccc4o3)ncc2C#N)CC[C@@H]1O [Cmpd 205]	H (selectivity level of 5-fold or less (selectivity level H))
100 to 800		Cc1cc2ccccc2n1CCNc1ncc(C#N)c(N[C@@H]2CC[C@H](O)C(C)(C)C2)n1 [Cmpd 206]	F (selectivity of between 20- and 100-fold (selectivity level F))
2000 to 10000		Cc1nc2ccccc2n1CCNc1ncc(C#N)c(N[C@@H]2CC[C@H](O)C(C)(C)C2)n1 [Cmpd 207]	H (selectivity level of 5-fold or less (selectivity level H))
100 to 800		CC1(C)C[C@H](Nc2nc(NCCc3cn[nH]c3)ncc2C#N)CC[C@@H]1O [Cmpd 208]	G (selectivity between 5- and 20-fold (selectivity level G))
2000 to 10000		CC1(C)C[C@H](Nc2nc(NCCn3ccc(-c4ccccc4)n3)ncc2C#N)CC[C@@H]1O [Cmpd 209]	H (selectivity level of 5-fold or less (selectivity level H))
800 to 2000		Cc1cc(C(F)(F)F)nn1CCNc1ncc(C#N)c(N[C@@H]2CC[C@H](O)C(C)(C)C2)n1 [Cmpd 210]	G (selectivity between 5- and 20-fold (selectivity level G))
2000 to 10000		CC1(C)C[C@H](Nc2nc(NCCn3cccn3)ncc2C#N)CC[C@@H]1O [Cmpd 211]	H (selectivity level of 5-fold or less (selectivity level H))
2000 to 10000		Cc1cnn(CCNc2ncc(C#N)c(N[C@@H]3CC[C@H](O)C(C)(C)C3)n2)c1 [Cmpd 212]	H (selectivity level of 5-fold or less (selectivity level H))
2000 to 10000		CC1(C)C[C@H](Nc2nc(NCCn3cc(C#N)cn3)ncc2C#N)CC[C@@H]1O [Cmpd 213]	H (selectivity level of 5-fold or less (selectivity level H))
2000 to 10000		Cc1cccnc1CCNc1ncc(C#N)c(N[C@@H]2CC[C@H](O)C(C)(C)C2)n1 [Cmpd 214]	H (selectivity level of 5-fold or less (selectivity level H))
800 to 2000		COc1cccc(CCNc2ncc(C#N)c(N[C@@H]3CC[C@H](O)C(C)(C)C3)n2)n1 [Cmpd 215]	G (selectivity between 5- and 20-fold (selectivity level G))
800 to 2000		CC1(C)C[C@H](Nc2nc(NCCc3ccn[nH]3)ncc2C#N)CC[C@@H]1O [Cmpd 216]	G (selectivity between 5- and 20-fold (selectivity level G))
100 to 800		CC1(C)C[C@H](Nc2nc(NCCc3cccc4cc[nH]c34)ncc2C#N)CCC1O (stereo partly drawn) [Cmpd 217]	G (selectivity between 5- and 20-fold (selectivity level G))
2000 to 10000		CC1(C)C[C@H](Nc2nc(NCCc3cnc(C4CC4)nc3)ncc2C#N)CC[C@@H]1O [Cmpd 218]	H (selectivity level of 5-fold or less (selectivity level H))
< 100		CC1(C)C[C@H](Nc2nc(NCCC3C(=O)Nc4ccccc43)ncc2C#N)CC[C@@H]1O (stereo partly drawn) [Cmpd 247]	
< 100		CCc1ccc2c(c1)C(CCNc1ncc(C#N)c(N[C@@H]3C[C@H](O)C3(C)C)n1)C(=O)N2 (stereo partly drawn) [Cmpd 261]	
2000 to 10000		CC1(C)C[C@H](Nc2nc(NCCn3c(=O)[nH]c4ccccc43)ncc2C#N)CC[C@@H]1O [Cmpd 293]	

The next lines start with the compound.

Compound	IC50 (His-PKC-theta) [nM]	IC50 (His-PKC-theta; Table 2) [nM]	Sel. Level (ratio of IC50 PKC-delta/IC50 PKC-theta) (PKC delta)
CC1(C)C[C@H](Nc2nc(NCCc3c[nH]c4ccc(F)cc34)ncc2C#N)CC[C@@H]1O [Cmpd 181]	100 to 800		
CC1(C)C[C@H](Nc2nc(NCCc3c[nH]c4c(F)cccc34)ncc2C#N)CC[C@@H]1O [Cmpd 182]	< 100		
CC1(C)C[C@H](Nc2nc(NCCc3cccc(Cl)c3C(F)(F)F)ncc2C#N)CC[C@@H]1O [Cmpd 182]		100 to 800	
CC1(C)C[C@H](Nc2nc(NCCc3cc(Cl)ccc3C(F)(F)F)ncc2C#N)CC[C@@H]1O [Cmpd 183]		100 to 800	
COc1ccc2c(CCNc3ncc(C#N)c(N[C@@H]4CC[C@H](O)C(C)(C)C4)n3)c[nH]c2c1 [Cmpd 183]	< 100		
CC1(C)C[C@H](Nc2nc(NCCC3(O)C(=O)Nc4ccccc43)ncc2C#N)CC[C@@H]1O (stereo partly drawn) [Cmpd 184]	100 to 800		
CC1(C)C[C@H](Nc2nc(NCCc3cc(F)cc(Cl)c3)ncc2C#N)CC[C@@H]1O [Cmpd 184]		< 100	
CC1(C)C[C@H](Nc2nc(NCCc3ccc(S(=O)(=O)C(F)(F)F)cc3)ncc2C#N)CC[C@@H]1O [Cmpd 185]		100 to 800	
CC1(C)C[C@H](Nc2nc(NCCc3cccs3)ncc2C#N)CC[C@@H]1O [Cmpd 185]	100 to 800		
CC1(C)C[C@H](Nc2nc(NCCc3ccc(S(N)(=O)=O)c(Cl)c3)ncc2C#N)CC[C@@H]1O [Cmpd 186]		< 100	
CC1(C)[C@@H](O)C[C@H]1Nc1nc(NCCc2ccncc2)ncc1C#N [Cmpd 186]	800 to 2000		
CC1(C)C[C@@H](O)CC[C@@H]1Nc1nc(NCCc2cccc(Cl)c2)ncc1C#N [Cmpd 187]		2000 to 10000	
CC1(C)[C@@H](O)C[C@H]1Nc1nc(NCCc2ccccn2)ncc1C#N [Cmpd 187]	2000 to 10000		
CC1(C)C[C@H](O)CC[C@H]1Nc1nc(NCCc2cccc(Cl)c2)ncc1C#N [Cmpd 188]		100 to 800	
CC1(C)[C@@H](O)C[C@H]1Nc1nc(NCCCn2ccnc2)ncc1C#N [Cmpd 188]	2000 to 10000		
CC1(C)C[C@H](O)CC[C@@H]1Nc1nc(NCCc2cccc(Cl)c2)ncc1C#N [Cmpd 189]		800 to 2000	

Compound	IC50 (His-PKC-theta) [nM]	IC50 (His-PKC-theta; Table 2) [nM]	Sel. Level (ratio of IC50 PKC-delta/IC50 PKC-theta) (PKC delta)
CC1(C)[C@@H](O)C[C@H]1Nc1nc(NCCc2cccs2)ncc1C#N [Cmpd 189]	100 to 800		
CC1(C)C[C@@H](O)CC[C@H]1Nc1nc(NCCc2cccc(Cl)c2)ncc1C#N [Cmpd 190]		< 100	
CC1(C)[C@@H](O)C[C@H]1Nc1nc(NCCc2cccc3cccnc23)ncc1C#N [Cmpd 190]	2000 to 10000		
CC1(C)C[C@H](Nc2nc(NCCc3ncon3)ncc2C#N)CC[C@@H]1O [Cmpd 191]	2000 to 10000		
Cc1nnnn1-c1ccc(CCNc2ncc(C#N)c(N[C@@H]3CCC[C@@](C)(O)C3)n2)cc1 [Cmpd 191]		2000 to 10000	
Cc1ccc(CCNc2ncc(C#N)c(N[C@@H]3CC[C@H](O)C(C)(C)C3)n2)o1 [Cmpd 192]	100 to 800		
N#Cc1ccc(CCNc2ncc(C#N)c(N[C@H]3C[C@@H](C(N)=O)C3)n2)cc1 [Cmpd 192]		2000 to 10000	
CC1(C)C[C@H](Nc2nc(NCCc3cc(Cl)ccc3S(N)(=O)=O)ncc2C#N)CC[C@@H]1O [Cmpd 193]		100 to 800	
Cc1ccnn1CCNc1ncc(C#N)c(N[C@@H]2CC[C@H](O)C(C)(C)C2)n1 [Cmpd 193]	2000 to 10000		
CC1(C)[C@@H](C(N)=O)C[C@H]1Nc1nc(NCCc2ccc(C#N)cc2)ncc1C#N [Cmpd 194]		100 to 800	
Cc1ccn(CCNc2ncc(C#N)c(N[C@@H]3CC[C@H](O)C(C)(C)C3)n2)n1 [Cmpd 194]	2000 to 10000		
Cc1nc(CCNc2ncc(C#N)c(N[C@@H]3CC[C@H](O)C(C)(C)C3)n2)no1 [Cmpd 195]	2000 to 10000		
N#Cc1cnc(NCCc2ccc(-n3ccnc3)c(F)c2)nc1N[C@H]1CC[C@@H](C(N)=O)CC1 [Cmpd 195]		< 100	
CC1(C)C[C@H](Nc2nc(NCCc3cccc(F)c3)ncc2C#N)CC[C@@H]1O [Cmpd 196]		< 100	
CC1(C)C[C@H](Nc2nc(NCCc3ccco3)ncc2C#N)CC[C@@H]1O [Cmpd 196]	100 to 800		
